In patent US20220213061A9, “HETEROCYCLIC COMPOUNDS FOR MODULATING NR2F6” (TES Pharma S.r.l., priority 2020, published 2022):
Where a name gives a salt, the structure may show the parent alone.

molecular target: T1, recombinant human NR2F6 protein (Homo sapiens, UniProt P10588); experiment: Biochemical NR2F6 binding assay (EnSpire label-free); details: label-free binding to immobilized purified recombinant human NR2F6; ligands 1 nM to 100 uM, 1% DMSO
T1 sequence (P10588 1-404): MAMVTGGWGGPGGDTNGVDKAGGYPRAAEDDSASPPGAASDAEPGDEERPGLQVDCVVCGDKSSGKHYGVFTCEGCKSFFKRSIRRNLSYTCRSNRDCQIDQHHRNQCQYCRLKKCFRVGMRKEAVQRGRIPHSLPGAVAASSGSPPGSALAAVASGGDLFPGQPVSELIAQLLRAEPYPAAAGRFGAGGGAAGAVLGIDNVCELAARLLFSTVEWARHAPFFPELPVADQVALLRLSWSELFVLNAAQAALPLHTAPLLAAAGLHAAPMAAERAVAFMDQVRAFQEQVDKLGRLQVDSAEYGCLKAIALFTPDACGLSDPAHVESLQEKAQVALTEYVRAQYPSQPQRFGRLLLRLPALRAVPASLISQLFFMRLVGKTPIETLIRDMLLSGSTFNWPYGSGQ
Procedure: Purified recombinant human NR2F6 protein was dissolved in immobilization buffer at pH 4.5 and then immobilized in EnSpire-LFB High-Sensitivity User-Activated Plates at the concentration of 50 μg/well plate and left in incubation for 16 h at 4° C. Wells with only immobilization buffer were used as negative control to check the protein coating efficiency. NR2F6 ligands were resuspended in DMSO at the concentration of 10 mM, then dispensed into a plate containing assay buffer at concentrations ranging from 1 nM to 100 uM using an HP-dispenser. DMSO was normalized at the 1% of volume of each well. The final readings were taken over a period of 30 minutes. The label-free responses were measured as shifts in reflected wavelength and are expressed in picometers (pm). Results were analyzed using the EnSpire label-free user interface software, and EC50 and graphs were generated using GraphPad PRISM software. In the tables below, A is <1 μM; B is 1 to 10 μM; C is 10 to 50 μM; and D is >50 μM.

SMILES | EC50 [µM]
O=C(Nc1cccc(-c2cccnc2)c1)[C@@H]1CN(C2CCOCC2)C[C@H]1c1ccccc1 (racemic) [Compound I-54, (±)-trans-4-Phenyl-N-[3-(pyridin-3-yl)phenyl]-1-(tetrahydro-2H-pyran-4-yl)pyrrolidine-3-carboxamide] | > 50
O=S(=O)(N[C@@H]1CNC[C@H]1c1ccccc1)c1cccc2cnccc12 (racemic) [Compound I-8, (±)-trans-N-(4-Phenylpyrrolidin-3-yl)isoquinoline-5-sulfonamide] | > 50
O=C(Nc1cccc2cnccc12)[C@H]1CNC[C@@H]1c1cccs1 [Compound I-44, (3R,4R)—N-(Isoquinolin-5-yl)-4-(thiophen-2-yl)pyrrolidine-3-carboxamide dihydrochloride] | > 50
O=C(Nc1cccc2cnccc12)O[C@@H]1CNC[C@H]1c1ccccc1 (racemic) [Compound I-4, (±)-trans-4-Phenylpyrrolidin-3-yl isoquinolin-5-ylcarbamate] | 1 to 10
O=C(Nc1cccc(-c2cccnc2)c1)[C@@H]1CN(Cc2ccccc2)C[C@H]1c1ccccc1 (racemic) [Compound I-63, (±)-trans-1-Benzyl-4-phenyl-N-[3-(pyridin-3-yl)phenyl]pyrrolidine-3-carboxamide] | 1 to 10
O=C(Nc1ccc(-c2ccc(C(F)(F)F)nc2)cc1)[C@@H]1CNC[C@H]1c1ccccc1 [Compound I-103, (3S,4R)-4-Phenyl-N-[4-[6-(trifluoromethyl)pyridin-3-yl]phenyl]pyrrolidine-3-carboxamide hydrochloride] | < 1
O=C(Nc1ccc(-c2ccc(F)nc2)cc1)[C@@H]1CNC[C@H]1c1ccccc1 [Compound I-108, (3S,4R)—N-[4-(6-Fluoropyridin-3-yl)phenyl]-4-phenylpyrrolidine-3-carboxamide dihydrochloride] | < 1
S=C(Nc1cccc2cnccc12)N[C@@H]1CNC[C@H]1c1ccccc1 (racemic) [Compound I-7, (±)-trans-1-Isoquinolin-5-yl-3-(4-phenylpyrrolidin-3-yl)thiourea] | 1 to 10
O=C(Nc1cccc2cnccc12)C1=C(c2ccccc2)CNC1 [Compound I-1, N-(Isoquinolin-5-yl)-4-phenyl-2,5-dihydro-1H-pyrrole-3-carboxamide] | 10 to 50
O=C(Nc1cccc(-c2ccccc2)c1)[C@@H]1CNC[C@H]1c1cccc(F)c1 (racemic) [Compound I-27, (±)-trans-N-(Biphenyl-3-yl)-4-(3-fluorophenyl)pyrrolidine-3-carboxamide hydrochloride] | > 50
S=C(Nc1cccc2cnccc12)O[C@@H]1CNC[C@@H]1c1ccccc1 (racemic) [Compound I-3, (±)-cis-O-(4-Phenylpyrrolidin-3-yl) isoquinolin-5-ylcarbamothioate] | 10 to 50
Cc1nccc2c(NC(=O)[C@H]3CNC[C@@H]3c3ccc(C(F)(F)F)cc3)cccc12 [Compound I-96, (3R,4S)—N-(1-Methylisoquinolin-5-yl)-4-[4-(trifluoromethyl)phenyl]pyrrolidine-3-carboxamide dihydrochloride] | 1 to 10
O=C(Nc1cccc(-c2ccccc2)c1)[C@@H]1CNC[C@H]1c1ccccc1F (racemic) [Compound I-28, (±)-trans-4-(2-Fluorophenyl)-pyrrolidine-3-carboxylic acid biphenyl-3-ylamide hydrochloride] | > 50
O=C(N[C@@H]1CNC[C@H]1c1ccccc1)c1cccc2cnccc12 (racemic) [Compound I-9, (±)-trans-N-(4-Phenylpyrrolidin-3-yl)isoquinoline-5-carboxamide] | 1 to 10

The next lines start with the values.

EC50 [µM] | SMILES
> 50 | O=C(Nc1cccc(Oc2ccccn2)c1)[C@H]1CNC[C@@H]1c1ccccc1 (racemic) [Compound I-99, (±)-trans-4-Phenyl-N-[3-(pyridin-2-yloxy)phenyl]pyrrolidine-3-carboxamide dihydrochloride]
1 to 10 | Cc1cc2c(NC(=O)[C@@H]3CNC[C@H]3c3ccccc3)cccc2cn1 (racemic) [Compound I-15, (±)-trans-N-(3-Methylisoquinolin-5-yl)-4-phenylpyrrolidine-3-carboxamide dihydrochloride]
10 to 50 | O=C(N[C@H]1C[C@H](Oc2cccnc2)C1)[C@H]1CNC[C@@H]1c1ccccc1 (racemic) [Compound I-101, (±)-trans-N-[trans-3-(Pyridyn-3-yloxy)cyclobutyl]-4-phenylpyrrolidine-3-carboxamide dihydrochloride]
1 to 10 | Cc1cccc(Oc2cccc(NC(=O)[C@H]3CNC[C@@H]3c3ccccc3)c2)c1 (racemic) [Compound I-97, (±)-trans-4-Phenyl-N-[3-(3-methylphenoxy)phenyl]pyrrolidine-3-carboxamide hydrochloride]
1 to 10 | O=C(Nc1cccc(OC2CCOCC2)c1)[C@@H]1CNC[C@H]1c1ccccc1 (racemic) [Compound I-86, (±)-trans-N-[3-(Tetrahydro-2H-pyran-4-yloxy)phenyl]-4-phenylpyrrolidine-3-carboxamide hydrochloride]
> 50 | CN1CCC(CNC(=O)[C@H]2CNC[C@@H]2c2ccccc2)CC1 [Compound I-35, (3R,4S)—N-[(1-Methylpiperidin-4-yl)methyl]-4-phenylpyrrolidine-3-carboxamide dihydrochloride]
> 50 | O=C(Nc1cccc2cnccc12)[C@@H]1CNC[C@H]1c1ccccc1 [Compound I-40, (3S,4R)—N-(Isoquinolin-5-yl)-4-phenylpyrrolidine-3-carboxamide dihydrochloride]
1 to 10 | O=C(Nc1cccc2cnccc12)[C@@H]1CNC[C@H]1c1ccccc1 (racemic) [Compound I-21, (±)-trans-N-(Isoquinolin-5-yl)-4-phenylpyrrolidine-3-carboxamide dihydrochloride]
> 50 | O=C(Nc1cccc2c1OCCO2)[C@H]1CNC[C@@H]1c1ccccc1 (racemic) [Compound I-65, (±)-trans-N-(2,3-Dihydro-1,4-benzodioxin-5-yl)-4-phenylpyrrolidine-3-carboxamide hydrochloride]
< 1 | O=C(Nc1cccc(Oc2ccc(F)cc2)c1)[C@H]1CNC[C@@H]1c1ccccc1 (racemic) [Compound I-93, (±)-trans-N-[3-(4-Fluorophenoxy)phenyl]-4-phenylpyrrolidine-3-carboxamide hydrochloride]
> 50 | O=C([C@@H]1CNC[C@H]1c1ccccc1)N1CC(c2cccnc2)C1 (racemic) [Compound I-48, (±)-trans-(4-Phenylpyrrolidin-3-yl)[3-(pyridin-3-yl)azetidin-1-yl]methanone dihydrochloride]
< 1 | O=C(Nc1cccc2cnccc12)[C@H]1CNC[C@@H]1c1ccccc1 [Compound I-29, (3R,4S)—N-(Isoquinolin-5-yl)-4-phenylpyrrolidine-3-carboxamide]
< 1 | Cc1nccc2c(NC(=O)[C@H]3CNC[C@@H]3c3ccccc3)cccc12 [Compound I-30, (3R,4S)—N-(1-Methylisoquinolin-5-yl)-4-phenylpyrrolidine-3-carboxamide dihydrochloride]
> 50 | O=C(Nc1nccc2ccccc12)[C@@H]1CNC[C@H]1c1ccccc1 (racemic) [Compound I-12, (±)-trans-N-(Isoquinolin-1-yl)-4-phenylpyrrolidine-3-carboxamide dihydrochloride]
> 50 | O=C(Nc1ccc(-c2cccnc2)cc1)[C@H]1CNC[C@@H]1c1ccccc1 [Compound I-39, (3R,4S)-4-Phenyl-N-[4-(pyridin-3-yl)phenyl]pyrrolidine-3-carboxamide dihydrochloride]
10 to 50 | O=C(N[C@H]1C[C@H](Oc2ccc(F)nc2)C1)[C@@H]1CNC[C@H]1c1ccccc1 (racemic) [Compound I-116, (±)-trans-N-{trans-3-[(6-Fluoropyridin-3-yl)oxy]cyclobutyl}-4-phenylpyrrolidine-3-carboxamide dihydrochloride]
1 to 10 | O=C(Nc1cccc(-c2ccc(F)nc2)c1)[C@@H]1CNC[C@H]1c1ccccc1 (racemic) [Compound I-26, (±)-trans-N-[3-(6-Fluoropyridin-3-yl)phenyl]-4-phenylpyrrolidine-3-carboxamide]
< 1 | N#Cc1ccc(N2CCC(NC(=O)[C@@H]3CNC[C@H]3c3ccccc3)CC2)cc1 [Compound I-122, (3S,4R)-3-{[1-(4-Cyanophenyl)lpiperidin-4-yl]carbamoyl]}-4-phenylpyrrolidine dihydrochloride]
1 to 10 | O=C(NC1CCN(c2ccccc2)CC1)[C@@H]1CNC[C@H]1c1ccccc1 [Compound I-123, (3S,4R)-3-[(l-Phenylpiperidin-4-yl)carbamoyl]-4-phenylpyrrolidine dihydrochloride]
1 to 10 | O=C(Nc1cccc(-c2cccnc2)c1)[C@@H]1CNC[C@H]1c1ccccc1 (racemic) [Compound I-11, (±)-trans-4-Phenyl-N-[3-(pyridin-3-yl)phenyl]pyrrolidine-3-carboxamide]
